Measurements: ChEMBL document CHEMBL1201862, “PubChem BioAssay data set” (2004)
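A five-concentration, 48-hour dose response in 96-well plates underlies each endpoint, interpolated linearly between surrounding concentrations. GI50 = concentration required for 50% inhibition of growth.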 Active and inactive are the calls of the source. No stated cut-off is given here; in the data, active = GI50 up to about 1.1 µM and inactive = higher.

Key:
Assay in all cases: growth of human tumour cells (NCI), 48 h
786-0 = system: 786-0
A498 = system: A498
A549 = system: A549
ACHN = system: ACHN
CAKI-1 = system: CAKI-1
CCRF-CEM = system: CCRF-CEM
COLO 205 = system: COLO 205
DLD-1 = system: DLD-1
DMS-273 = system: DMS-273
EKVX = system: EKVX
HCC 2998 = system: HCC 2998
HCT-116 = system: HCT-116
HCT-15 = system: HCT-15
HL-60 = system: HL-60
HOP-18 = system: HOP-18
HOP-62 = system: HOP-62
HOP-92 = system: HOP-92
HT-29 = system: HT-29
IGROV-1 = system: IGROV-1
K562 = system: K562
KM-20L2 = system: KM-20L2
KM12 = system: KM12
LOX IMVI = system: LOX IMVI
LXFL 529 = system: LXFL 529
M14 = system: M14
M19-MEL = system: M19-MEL
MOLT-4 = system: MOLT-4
Malme-3M = system: Malme-3M
NCI-H226 = system: NCI-H226
NCI-H23 = system: NCI-H23
NCI-H460 = system: NCI-H460
NCI-H522 = system: NCI-H522
OVCAR-3 = system: OVCAR-3
OVCAR-4 = system: OVCAR-4
OVCAR-5 = system: OVCAR-5
OVCAR-8 = system: OVCAR-8
RPMI-8226 = system: RPMI-8226
RXF 393 = system: RXF 393
SF-268 = system: SF-268
SF-295 = system: SF-295
SF-539 = system: SF-539
SK-MEL-28 = system: SK-MEL-28
SK-MEL-2 = system: SK-MEL-2
SK-MEL-5 = system: SK-MEL-5
SK-OV-3 = system: SK-OV-3
SN12C = system: SN12C
SNB-19 = system: SNB-19
SNB-75 = system: SNB-75
SNB-78 = system: SNB-78
SW-620 = system: SW-620
TK-10 = system: TK-10
U-251 = system: U-251
UACC-257 = system: UACC-257
UACC-62 = system: UACC-62
UO-31 = system: UO-31
DMS-114 = system: DMS-114
MCF7 = system: MCF7
NCI/ADR-RES = system: NCI/ADR-RES

Measured: GI50

CCCCN/C(=N\C#N)N(Cc1ccccc1)Cc1ccccc1
16300 nM: HCT-15
inactive: 786-0 29.9 µM | A498 17.3 µM | A549 37.2 µM | ACHN 29.7 µM | CAKI-1 29.1 µM | CCRF-CEM 16700 nM | COLO 205 18.4 µM | DLD-1 19.1 µM | DMS-273 16.1 µM | EKVX 28.2 µM | HCC 2998 11.9 µM | HCT-116 20.8 µM | HL-60 18.9 µM | HOP-18 39.8 µM | HOP-62 26.6 µM | HOP-92 17.6 µM | HT-29 14700 nM | IGROV-1 22.2 µM | K562 16600 nM | KM-20L2 20800 nM | KM12 28.2 µM | LOX IMVI 15.5 µM | LXFL 529 16.9 µM | M14 20.1 µM | M19-MEL 18.1 µM | MOLT-4 17500 nM | Malme-3M 37.2 µM | NCI-H226 41.7 µM | NCI-H23 24.6 µM | NCI-H460 58.5 µM | NCI-H522 15 µM | OVCAR-3 23.8 µM | OVCAR-4 27.3 µM | OVCAR-5 23500 nM | OVCAR-8 37 µM | RPMI-8226 16.6 µM | RXF 393 45.2 µM | SF-268 38.1 µM | SF-295 23.4 µM | SF-539 22.2 µM | SK-MEL-28 34.2 µM | SK-MEL-2 15.2 µM | SK-MEL-5 13.3 µM | SK-OV-3 29.7 µM | SN12C 27.7 µM | SNB-19 35.7 µM | SNB-75 31.5 µM | SNB-78 18.2 µM | SW-620 16 µM | TK-10 31.6 µM | U-251 28500 nM | UACC-257 20.5 µM | UACC-62 15.4 µM | UO-31 20.7 µM

CN(C)CCCOc1ccc(/C=C2/CCC/C(=C/c3ccc(OCCCN(C)C)cc3)C2=O)cc1
995 nM: HCT-15
inactive: 786-0 1.3 µM | A498 1.85 µM | A549 3.3 µM | ACHN 1.99 µM | COLO 205 1.73 µM | DLD-1 1.5 µM | DMS-114 1.56 µM | DMS-273 1.45 µM | EKVX 3.95 µM | HCC 2998 1.7 µM | HCT-116 1.37 µM | HL-60 1.97 µM | HOP-18 3.61 µM | HOP-62 1.82 µM | HOP-92 1.16 µM | IGROV-1 2.72 µM | KM12 1.32 µM | LOX IMVI 1.51 µM | LXFL 529 1.89 µM | M14 2.11 µM | Malme-3M 1.78 µM | NCI-H23 1.74 µM | NCI-H460 2.07 µM | NCI-H522 1.8 µM | OVCAR-3 2.26 µM | OVCAR-4 2.31 µM | OVCAR-8 3.08 µM | RPMI-8226 1.26 µM | RXF 393 1.61 µM | SF-268 2 µM | SF-295 1.9 µM | SF-539 1.6 µM | SK-MEL-28 1.79 µM | SK-MEL-2 2.03 µM | SK-MEL-5 2.23 µM | SK-OV-3 1.93 µM | SN12C 1.39 µM | SNB-19 2.08 µM | SNB-75 1.28 µM | SNB-78 3.25 µM | SW-620 1.77 µM | TK-10 2.67 µM | UACC-257 2.03 µM | UACC-62 1.91 µM | UO-31 1.79 µM
active: CCRF-CEM 824 nM | HT-29 442 nM | K562 299 nM | KM-20L2 232 nM | MOLT-4 877 nM | OVCAR-5 239 nM | U-251 918 nM

CC1C(O)[C@@]2(OC[C@@]34C(=O)CC5(O)[C@H](CCC6Cc7nc8c(nc7C[C@]65C)CC5CC[C@@H]6C7=C[C@H]9O[C@@]%10(O[C@@](C)(CO)C[C@@H]%10O)C(C)[C@@]9(O)[C@]7(C)[C@@H](O)CC6[C@]5(C)C8)C3=CC[C@H]4C2C)OC1(C)C (stereo not given in full)
6.67 nM: HCT-15
active: A498 < 0.000355 µM | A549 < 0.000355 µM | CAKI-1 0.0119 µM | CCRF-CEM < 0.355 nM | COLO 205 0.00532 µM | DLD-1 0.0607 µM | DMS-114 < 0.000355 µM | DMS-273 < 0.000355 µM | EKVX 0.00084 µM | HCC 2998 0.548 µM | HCT-116 0.000776 µM | HL-60 < 0.000355 µM | HOP-18 0.849 µM | HOP-62 < 0.000355 µM | HOP-92 < 0.000355 µM | HT-29 0.622 nM | IGROV-1 0.00262 µM | K562 < 0.355 nM | KM-20L2 0.796 nM | LOX IMVI < 0.000355 µM | M19-MEL 0.442 µM | MCF7 < 0.355 nM | MOLT-4 < 0.355 nM | Malme-3M 0.00287 µM | NCI-H23 0.00127 µM | NCI-H460 < 0.000355 µM | NCI-H522 0.00308 µM | OVCAR-4 0.604 µM | OVCAR-5 2.11 nM | OVCAR-8 0.247 µM | RPMI-8226 < 0.000355 µM | RXF 393 < 0.000355 µM | SF-268 0.000659 µM | SF-295 < 0.000355 µM | SF-539 < 0.000355 µM | SK-MEL-2 0.000524 µM | SK-MEL-5 0.00667 µM | SK-OV-3 0.00226 µM | SN12C 0.628 µM | SNB-19 0.00259 µM | SNB-75 < 0.000355 µM | SNB-78 0.00146 µM | SW-620 0.000385 µM | U-251 < 0.355 nM | UACC-257 0.00524 µM | UACC-62 < 0.000355 µM | UO-31 0.0254 µM
inactive: KM12 > 3.55 µM | NCI-H226 > 3.55 µM | NCI/ADR-RES > 3.55 µM | OVCAR-3 1.26 µM
